These results are taken from article PMC6978800, “FAMIN Is a Multifunctional Purine Enzyme Enabling the Purine Nucleotide Cycle” (Cell, 2020).

The structures appear in SMILES notation.

For assay [1], the target named is T1, YlmD (Geobacillus stearothermophilus, UniProt P84138).
T1 construct: gene pgeF; synthetic gene in pPSG-IBA105 (Strep-tag); expressed in E. coli BL21(DE3); StrepTrap and size exclusion
T1 sequence (P84138 1-274): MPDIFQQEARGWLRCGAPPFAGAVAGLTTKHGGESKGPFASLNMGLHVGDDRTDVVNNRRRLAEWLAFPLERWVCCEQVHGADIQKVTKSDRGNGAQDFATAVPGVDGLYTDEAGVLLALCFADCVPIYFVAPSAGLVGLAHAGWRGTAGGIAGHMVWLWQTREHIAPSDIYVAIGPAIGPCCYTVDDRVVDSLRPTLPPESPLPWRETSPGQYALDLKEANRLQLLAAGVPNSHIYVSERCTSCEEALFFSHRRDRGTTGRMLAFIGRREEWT
The assay is described as follows: X-ray crystal structure, soaked crystals, […] Å. Conditions: soak with 18.7 mM inosine, 0.5 mM sodium phosphate, 0.5 mM zinc sulfate, pH 7.5; active site, ribose partially hydrolyzed or disordered. The format is binding.

A further assay deals with T2, FAMIN^254I (Homo sapiens, UniProt Q8IV20).
T2 construct: gene LACC1; full-length, N-terminal Twin-Strep-tag with TEV site, tag cut (kept in select experiments); expressed in HEK293T; monomer; 430 residues
T2 sequence (Q8IV20 1-430): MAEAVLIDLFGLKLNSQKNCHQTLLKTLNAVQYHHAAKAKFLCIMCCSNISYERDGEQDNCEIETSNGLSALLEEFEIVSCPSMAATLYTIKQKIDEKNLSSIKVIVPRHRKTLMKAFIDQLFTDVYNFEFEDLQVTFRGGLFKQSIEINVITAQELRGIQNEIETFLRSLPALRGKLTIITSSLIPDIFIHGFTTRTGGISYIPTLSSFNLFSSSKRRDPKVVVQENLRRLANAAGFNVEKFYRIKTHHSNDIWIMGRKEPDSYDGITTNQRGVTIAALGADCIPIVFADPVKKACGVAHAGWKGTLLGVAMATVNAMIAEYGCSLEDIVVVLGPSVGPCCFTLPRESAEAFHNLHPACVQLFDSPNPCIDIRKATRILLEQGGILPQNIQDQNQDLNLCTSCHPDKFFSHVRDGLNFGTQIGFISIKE
The assay is described as follows: LC-MS product quantitation, Michaelis-Menten. The format is biochemical. Particulars: PBS pH 7.4, 37°C; phosphate as co-substrate of phosphorolysis; read-out: apparent Km.

Assay [2] concerns the target T1, YlmD. Nature of the assay: LC-MS of inosine and adenine. In kind it is biochemical. Particulars: 10 μM substrate, PBS pH 7.4, 37°C, 1 h.
The next assay deals with T3, YfiH (Escherichia coli, UniProt P33644).
T3 construct: gene pgeF; synthetic gene in pPSG-IBA105 (Strep-tag); expressed in E. coli BL21(DE3); StrepTrap and size exclusion
T3 sequence (P33644 1-243): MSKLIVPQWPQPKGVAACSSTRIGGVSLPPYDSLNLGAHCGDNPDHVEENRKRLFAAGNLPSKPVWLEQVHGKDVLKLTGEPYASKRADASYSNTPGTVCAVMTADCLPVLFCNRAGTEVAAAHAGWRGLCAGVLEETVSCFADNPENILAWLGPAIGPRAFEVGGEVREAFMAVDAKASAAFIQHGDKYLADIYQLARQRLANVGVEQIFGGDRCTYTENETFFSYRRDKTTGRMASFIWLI
The assay is described as follows: LC-MS of inosine and adenine. Conditions: 10 μM substrate, PBS pH 7.4, 37°C, 1 h. The format is biochemical.

The target of assay [3] is T1, YlmD. Nature of the assay: LC-MS of adenine. The format is biochemical. Conditions: 10 μM substrate, PBS pH 7.4, 37°C, 1 h.

As usually defined, the Km is the substrate concentration at which the rate is half of its maximum. Regarding `O=c1[nH]cnc2c1ncn2[C@@H]1O[C@H](CO)[C@@H](O)[C@H]1O` [Inosine], the “X-ray crystal structure, soaked crystals, 1.2 Å” value on YlmD [1] was “unambiguously identifying the purine ring of a bound inosine molecule”. Moreover, the Km on FAMIN^254I worked out at 41 µM.

As to `Nc1ncnc2c1ncn2[C@@H]1O[C@H](CO)[C@@H](O)[C@H]1O` [Adenosine], the “LC-MS of inosine and adenine” value on YlmD [2] is “YlmD and YfiH metabolized adenosine to inosine and adenine, MTA to adenine”; on YfiH it was “YlmD and YfiH metabolized adenosine to inosine and adenine, MTA to adenine”. Moreover, the Michaelis-Menten constant (Km) at FAMIN^254I is 36 µM.

On to `CSC[C@H]1O[C@@H](n2cnc3c(N)ncnc32)[C@H](O)[C@@H]1O` [S-methyl-5′-thioadenosine], for which, on YlmD [3], the LC-MS of adenine result was “YlmD and YfiH metabolized adenosine to inosine and adenine, MTA to adenine”. Further, the Michaelis-Menten constant (Km) at FAMIN^254I was 1 µM.
